Data on six compounds can be found in publication PMC8877233, “The Hydrophobicity and Antifungal Potentiation of Burkholdine Analogues” (Molecules, 2022).

Data set [1] in a line: RP-HPLC retention time as measure of hydrophilicity/hydrophobicity. As to conditions: chromatographic, Cosmosil 5C18-AR-II 4.6 x 150 mm, linear gradient 30–70% MeCN/H2O (0.1% TFA) for 30 min, 1 mL/min, UV 220 nm. It counts as physicochemical. Here is the method:
[…] In all cases, the retention times of the (S)-Dab-containing peptides were shorter than those of the (R)-Dab-containing peptides, which were similar to those bearing L-Orn. The retention times of the cyclic peptides were shorter for Tat > D-Ser > L-Thr > L-Ser, while peptides bearing the undecanoic acid moiety eluted […] than those bearing the decanoic acid by about 2 min.

In data set [2] the test system is S. cerevisiae (ATCC204504). Type of data set: cell-based. As to conditions: ATCC204504, 24 h. The protocol:
Bacto yeast extract (0.63 g, 70161, Fluka, Barcelona, Spain), peptone (1.00 g, 26421, Mikuni, Japan), and glucose (1.00 g, 16806-25, Nacalai tesque, Japan) were added to H2O (50 mL) at room temperature and the mixture was heated to 60 °C. After 30 min, the mixture was sterilized by heating in an autoclave at 121 °C for 20 min.
DMSO (8 µL, 13406-55, Nacalai tesque, Japan) was added to YPD medium (750 µL). The test fungus culture solution (3 µL) was added to this solution (1.5 mL).
The inhibitor (each 1.0 mg; 3a–h, 4a–b, 5a–b, 6a–b, 7, 8) was dissolved in DMSO (40 µL).
The prepared test bacteria (50 µL) were placed in A1–A12 of a 96-well plate. Bk analogue (50 µL) was added to A1, pipetting was performed, and then 50 µL was extracted from A1 and placed in A2. This operation was repeated until A11, and 50 µL extracted from A11 was discarded. The well plate was closed and incubated at 30 °C. After 24 h, the MIC values were evaluated.

Data set [3] relates to S. cerevisiae. In words: Potentiation assay with G418. Type of data set: cell-based. As to conditions: for potentiation of the effect of G418: S. cerevisiae, peptide dose 100 µg/mL, result in words. The protocol:
(§1) Two antibiotics with different mechanisms of action can have a synergistic effect, together exerting an antifungal activity higher than the sum of their individual activities. Accordingly, the potentiation of the antifungal effect of G418 (Geneticin), an aminoglycosyl-type antibiotic that inhibits protein biosynthesis by binding to the ribosome 70S and 80S subunits, and zeocin (phleomucin D1), a glycopeptide antibiotic and DNA intercalator, by cyclic peptides (3a)–(8) was evaluated. Although the relatively high PSA and negative logP values of Bk analogues (3a)–(8) are not conductive to cell penetration, there was the possibility that their fatty side chains have an affinity for cell surfaces. […] The mechanism of action is not clear, but it is possible that the interaction of the cyclic peptides (3a)–(8) with the cell wall increases its susceptibility to penetration by G418.
The prepared test bacteria (50 µL) were placed in well A1–A12 of a 96-well plate. G418 (200 mg/mL, 108321-42-2, Nacalai tesque, Japan) in H2O, then medium […] was added to A1, pipetting was performed, and 50 µL was extracted from A1 and placed in A2. This operation was repeated until A11, and 50 µL extracted from A11 was discarded. After 30 min, Bk analogue (200 μg/mL) in medium […] was added to each solution (final concentration = 100 μg/mL). The well plate was closed and incubated at 30 °C. After 24 h, the MIC and potentiation values were evaluated.

Data set [4] has as its system S. cerevisiae. The data set is described as follows: Potentiation assay with zeocin. As to conditions: assays attempted three times. It counts as cell-based. Here is the method:
as §1
The prepared test bacteria (50 µL) were placed in well A1–A12 of a 96-well plate. G418 (200 mg/mL, 108321-42-2, Nacalai tesque, Japan) in H2O, then medium […] was added to A1, pipetting was performed, and 50 µL was extracted from A1 and placed in A2. This operation was repeated until A11, and 50 µL extracted from A11 was discarded. After 30 min, Bk analogue (200 μg/mL) in medium […] was added to each solution (final concentration = 100 μg/mL). The well plate was closed and incubated at 30 °C. […]

Data set [5] deals with Candida albicans. As to conditions: cited from earlier work. The source says: The burkholdines (Bks) are a family of 25-membered cyclic lipopeptides composed of eight amino acids arranged in a lactam ring bearing a lipophilic side chain, which were first isolated from the proteobacteria Burkholderia ambifaria 2.2N by Schmidt in 2010 [1, 2, 3, 4]. […] The mechanism of this activity is thought to entail the inhibition of fungal β-glucan synthase, as is the case for the candine anti ...

Starred links: 1 amine or outer side, 2 acyl side, 3 side chain; linkers in the order of their positions; H or OH if unused. Positions of bridges follow the written chain, without caps; N, C: chain ends. Non-standard residues stand in square brackets, D forms with d. Residues, ends and D or L forms follow the SMILES beside them. X3 = CCCCCCCCCCC(=O)N[C@H](C(=O)NC[C@@H](CC(=O)[*:1])N[*:2])[C@@H](C)O; X2 = CCCCCCCCNC(=O)[C@H](O)[C@@H](O)C(=O)NC[C@@H](CC(=O)[*:1])N[*:2]

Consider `CCCCCCCCCCC(=O)N[C@H](C(=O)NC[C@H]1CC(=O)N[C@H](CO)C(=O)N[C@H](Cc2ccc(O)cc2)C(=O)N[C@H](CC(N)=O)C(=O)NCC(=O)N[C@@H](CC(N)=O)C(=O)N[C@@H](CO)C(=O)N[C@@H](CC(N)=O)C(=O)N1)[C@@H](C)O` [Compound 4b, Cyclo-[Undecanoic Acid-Thr-(R)-7-D-Ser-D-Tyr-D-Asn-Gly-Asn-Ser-Asn]] ([dS][dY][dN]GNSN; linker N-C via X3), for which the tR in data set [1] is 10.7 min. Also, the MIC (as a rule, the least concentration at which growth counts as inhibited) in data set [2] is greater than 200 µg/mL. The “potentiation of the effect of G418” value in data set [3] is given as “weak potentiating effects”. For `CCCCCCCCNC(=O)[C@H](O)[C@@H](O)C(=O)NC[C@H]1CC(=O)N[C@H](CO)C(=O)N[C@H](Cc2ccc(O)cc2)C(=O)N[C@H](CC(N)=O)C(=O)NCC(=O)N[C@@H](CC(N)=O)C(=O)N[C@@H](CO)C(=O)N[C@@H](CC(N)=O)C(=O)N1` [Compound 5b, Cyclo-[(2R,3R)-2,3-dihydroxy-4-(octylamino)-4-oxobutanoic Acid-(R)-7-D-Ser-D-Tyr-D-Asn-Gly-Asn-Ser-Asn]] ([dS][dY][dN]GNSN; linker N-C via X2), in data set [1], the tR came out at 6.4 min. Further, in data set [2], the MIC was greater than 200 µg/mL. The “potentiation of the effect of G418” value in data set [3] is “weak potentiating effects”.

Consider `CN[C@@H]1[C@@H](O)[C@@H](O[C@@H]2[C@@H](O)[C@H](O[C@H]3O[C@H]([C@@H](C)O)[C@@H](O)[C@H](O)[C@H]3N)[C@@H](N)C[C@H]2N)OC[C@]1(C)O` [Compound G418, G418, reference compound], for which the MIC in data set [3] (Saccharomyces cerevisiae, 24 h, read-out: MIC of G418 alone) came out at 25 mg/mL. For the compound `Cc1c(N)nc([C@H](CC(N)=O)NC[C@H](N)C(N)=O)nc1C(=O)N[C@H](C(=O)N[C@H](C)[C@@H](O)[C@H](C)C(=O)N[C@H](C(=O)NCCC1=N[C@@H](c2nc(C(=O)NCCCCN=C(N)N)cs2)CS1)[C@@H](C)O)[C@@H](O[C@@H]1O[C@@H](CO)[C@@H](O)[C@H](O)[C@@H]1O[C@H]1O[C@H](CO)[C@@H](O)[C@H](OC(N)=O)[C@@H]1O)c1cnc[nH]1` [zeocin], the “MIC of zeocin alone” value in data set [4] turned out to be 3.13 mg/mL. Take caspofungin: the MIC90 (commonly the lowest concentration that inhibits either 90% of growth or 90% of the strains tested, depending on the study) in data set [5] is reported as 0.25 µg/mL. As to micafungin, the MIC90 in data set [5] is 0.015 µg/mL.
